US7375090B2, “Glucopyranosyloxy-pyrazoles, pharmaceutical compositions containing these compounds, the use thereof and processed for the preparation thereof” (Boehringer Ingelheim International GmbH, priority 2003, dated 2008)

Biological target: T1, human sodium glucose cotransporter 2 (Homo sapiens, UniProt P31639)
T1 construct: expressed in transfected cells; host or cells: CHO-K1 (ATCC No. CCL 61) or HEK293 (ATCC No. CRL-1573), stably transfected with pZeoSV-hSGLT2
T1 sequence (P31639 1-672): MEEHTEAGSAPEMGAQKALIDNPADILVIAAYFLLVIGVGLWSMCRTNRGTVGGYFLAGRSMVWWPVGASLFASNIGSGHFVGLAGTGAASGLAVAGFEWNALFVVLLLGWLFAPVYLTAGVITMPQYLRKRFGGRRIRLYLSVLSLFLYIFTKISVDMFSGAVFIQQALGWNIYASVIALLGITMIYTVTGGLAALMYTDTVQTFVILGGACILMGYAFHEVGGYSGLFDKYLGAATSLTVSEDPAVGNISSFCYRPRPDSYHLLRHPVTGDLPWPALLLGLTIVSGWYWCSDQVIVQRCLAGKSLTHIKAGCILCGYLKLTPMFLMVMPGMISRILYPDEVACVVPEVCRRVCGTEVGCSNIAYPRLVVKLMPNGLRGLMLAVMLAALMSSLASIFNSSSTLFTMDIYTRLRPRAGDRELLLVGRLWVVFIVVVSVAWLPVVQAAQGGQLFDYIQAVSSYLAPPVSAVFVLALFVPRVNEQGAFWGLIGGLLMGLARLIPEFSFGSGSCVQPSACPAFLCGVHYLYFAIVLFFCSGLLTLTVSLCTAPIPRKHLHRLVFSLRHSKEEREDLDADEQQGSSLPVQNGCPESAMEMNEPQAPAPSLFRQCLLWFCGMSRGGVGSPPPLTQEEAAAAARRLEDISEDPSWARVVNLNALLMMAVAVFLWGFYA
Experiment: SGLT-2 assay (14C-AMG uptake in CHO-hSGLT2 or HEK-hSGLT2 cells)
Format: cell-based
Details: inhibition of 14C-AMG uptake; CHO-K1 or HEK293 cells stably transfected with hSGLT2; 2 hours' incubation at 37° C.
Protocol: These cell lines transport ^14C-labelled alpha-methyl-glucopyranoside (14C-AMG, Amersham) into the interior of the cell in sodium-dependent manner.
The SGLT-2 assay is carried out as follows:
CHO-hSGLT2 cells are cultivated in Ham's F12 Medium (BioWhittaker) with 10% foetal calf serum and 250 μg/ml zeocin (Invitrogen), and HEK293-hSGLT2 cells are cultivated in DMEM medium with 10% foetal calf serum and 250 μg/ml zeocin (Invitrogen).
The cells are detached from the culture flasks by washing twice with PBS and subsequently treating with trypsin/EDTA. After the addition of cell culture medium the cells are centrifuged, resuspended in culture medium and counted in a Casy cell counter. Then 40,000 cells per well are seeded into a white, 96-well plate coated with poly-D-lysine and incubated overnight at 37° C., 5% CO2. The cells are washed twice with 250 μl of assay buffer (Hanks Balanced Salt Solution, 137 mM NaCl, 5.4 mM KCl, 2.8 mM CaCl2, 1.2 mM MgSO4 and 10 mM HEPES (pH7.4), 50 μg/ml of gentamycin). Two hundred-fifty microliters of assay buffer and 5 μl of test compound are then added to each well and the plate is incubated for a further 15 minutes in the incubator. Five microliters of 10% DMSO are used as the negative control. […] After this incubation the radioactivity of the ^14C-AMG absorbed is measured in a Topcount (Packard) using a ^14C scintillation program.

EC50: ~5 nM
SMILES: CCc1ccc(Cc2c(O[C@@H]3O[C@H](CO)[C@@H](O)[C@H](O)[C@H]3O)nn(C3CCOCC3)c2C)cc1 [compound (4) of Example 3, 1-(tetrahydropyran-4-yl)-3-(β-D-glucopyranosyloxy)-4-(4-ethylbenzyl)-5-methyl-1H-pyrazole]
